The values that follow are results of earlier work, collected in US20250057824A1, “NOSE-TO-BRAIN DELIVERY FORMULATION OF NIMODIPINE, PREPARATION AND USE” (Nasal-Phyto (Shanghai) Pharmaceutical Technology Co., Ltd., priority 2023, published 2025).

Values after ≈ are worked out from the molar mass of the structure shown.

`COCCOC(=O)C1=C(C)NC(C)=C(C(=O)OC(C)C)C1c1cccc([N+](=O)[O-])c1` (stereo not shown) [Nimodipine]: the solubility in water was 2 µg/mL (≈ 4.78 µM).
